Measurements as given in paper PMC6199744, “Development of Chemical Proteomics for the Folateome and Analysis of the Kinetoplastid Folateome” (ACS Infectious Diseases, 2018).
Read-outs that look alike come from different tables or passages of the source.

Columns and labels:
Assay type in all cases: binding
[1] = target: T1, HeLa cell extract proteins (Homo sapiens, UniProt P60842)
T1 construct: endogenous in cells; host or cells: HeLa cell extract

[2] = target: T2, HeLa cell extract proteins (Homo sapiens, UniProt Q9NTG7)
T2 construct: endogenous in cells; host or cells: HeLa cell extract
T2 sequence (Q9NTG7 1-399): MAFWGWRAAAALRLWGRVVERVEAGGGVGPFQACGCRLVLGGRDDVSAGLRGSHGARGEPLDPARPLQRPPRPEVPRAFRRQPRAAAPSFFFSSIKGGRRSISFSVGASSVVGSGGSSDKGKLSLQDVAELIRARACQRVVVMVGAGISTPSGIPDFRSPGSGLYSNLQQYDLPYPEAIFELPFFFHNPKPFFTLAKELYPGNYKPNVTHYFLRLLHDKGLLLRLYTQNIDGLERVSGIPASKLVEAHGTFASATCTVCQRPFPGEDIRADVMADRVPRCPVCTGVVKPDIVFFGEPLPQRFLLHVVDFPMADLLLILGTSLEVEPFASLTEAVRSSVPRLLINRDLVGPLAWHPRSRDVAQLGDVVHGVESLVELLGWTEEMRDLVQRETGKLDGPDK

[3] = target: T3, HeLa cell extract proteins (Homo sapiens, UniProt Q92947)
T3 construct: endogenous in cells; host or cells: HeLa cell extract
T3 sequence (Q92947 45-438): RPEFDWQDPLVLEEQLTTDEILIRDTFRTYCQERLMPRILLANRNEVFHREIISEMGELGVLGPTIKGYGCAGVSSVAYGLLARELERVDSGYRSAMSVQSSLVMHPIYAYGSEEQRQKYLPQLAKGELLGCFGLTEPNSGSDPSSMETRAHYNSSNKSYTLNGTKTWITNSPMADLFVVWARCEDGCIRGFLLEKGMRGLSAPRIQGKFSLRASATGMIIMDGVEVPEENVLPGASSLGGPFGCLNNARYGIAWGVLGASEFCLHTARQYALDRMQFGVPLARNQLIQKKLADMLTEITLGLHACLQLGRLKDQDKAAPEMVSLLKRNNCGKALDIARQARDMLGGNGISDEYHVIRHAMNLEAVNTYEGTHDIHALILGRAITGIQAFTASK

[4] = target: T4, HeLa cell extract proteins (Homo sapiens, UniProt P04179)
T4 construct: endogenous in cells; host or cells: HeLa cell extract
T4 sequence (P04179 25-222): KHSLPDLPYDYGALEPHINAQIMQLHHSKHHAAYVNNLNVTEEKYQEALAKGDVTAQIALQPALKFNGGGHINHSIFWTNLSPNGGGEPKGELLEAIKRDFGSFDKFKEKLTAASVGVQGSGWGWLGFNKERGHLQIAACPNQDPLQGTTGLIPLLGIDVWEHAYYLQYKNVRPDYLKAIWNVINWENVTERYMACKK

[5] = target: T5, HeLa cell extract proteins (Homo sapiens, UniProt Q9BXR0)
T5 construct: endogenous in cells; host or cells: HeLa cell extract
T5 sequence (Q9BXR0 1-403): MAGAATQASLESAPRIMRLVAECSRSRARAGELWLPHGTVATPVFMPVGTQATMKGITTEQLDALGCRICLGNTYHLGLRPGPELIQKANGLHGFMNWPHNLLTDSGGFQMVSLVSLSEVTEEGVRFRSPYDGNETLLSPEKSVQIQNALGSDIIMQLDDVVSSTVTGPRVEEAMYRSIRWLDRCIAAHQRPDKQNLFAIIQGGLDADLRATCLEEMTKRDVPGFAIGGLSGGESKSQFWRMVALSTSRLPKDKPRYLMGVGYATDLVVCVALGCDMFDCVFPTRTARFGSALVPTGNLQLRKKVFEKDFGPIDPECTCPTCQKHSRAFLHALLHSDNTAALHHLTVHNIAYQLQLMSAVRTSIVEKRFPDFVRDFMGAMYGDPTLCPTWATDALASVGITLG

[6] = target: T6, HeLa cell extract proteins (Homo sapiens, UniProt Q9HB71)
T6 construct: endogenous in cells; host or cells: HeLa cell extract
T6 sequence (Q9HB71 whole entry): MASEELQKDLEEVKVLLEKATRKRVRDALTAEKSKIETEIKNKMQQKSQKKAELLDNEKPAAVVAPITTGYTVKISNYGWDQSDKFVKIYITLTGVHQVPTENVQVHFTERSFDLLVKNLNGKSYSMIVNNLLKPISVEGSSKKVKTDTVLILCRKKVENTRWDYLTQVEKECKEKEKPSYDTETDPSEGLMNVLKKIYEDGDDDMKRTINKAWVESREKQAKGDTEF

[7] = target: T7, HeLa cell extract proteins (Homo sapiens, UniProt P49773)
T7 construct: endogenous in cells; host or cells: HeLa cell extract
T7 sequence (P49773 whole entry): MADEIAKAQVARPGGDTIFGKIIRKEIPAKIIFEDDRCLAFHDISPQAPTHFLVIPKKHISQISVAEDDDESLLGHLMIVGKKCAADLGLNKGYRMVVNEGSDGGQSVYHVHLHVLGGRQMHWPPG

[8] = target: T8, HeLa cell extract proteins (Homo sapiens, UniProt O14980)
T8 construct: endogenous in cells; host or cells: HeLa cell extract
T8 sequence (O14980 whole entry): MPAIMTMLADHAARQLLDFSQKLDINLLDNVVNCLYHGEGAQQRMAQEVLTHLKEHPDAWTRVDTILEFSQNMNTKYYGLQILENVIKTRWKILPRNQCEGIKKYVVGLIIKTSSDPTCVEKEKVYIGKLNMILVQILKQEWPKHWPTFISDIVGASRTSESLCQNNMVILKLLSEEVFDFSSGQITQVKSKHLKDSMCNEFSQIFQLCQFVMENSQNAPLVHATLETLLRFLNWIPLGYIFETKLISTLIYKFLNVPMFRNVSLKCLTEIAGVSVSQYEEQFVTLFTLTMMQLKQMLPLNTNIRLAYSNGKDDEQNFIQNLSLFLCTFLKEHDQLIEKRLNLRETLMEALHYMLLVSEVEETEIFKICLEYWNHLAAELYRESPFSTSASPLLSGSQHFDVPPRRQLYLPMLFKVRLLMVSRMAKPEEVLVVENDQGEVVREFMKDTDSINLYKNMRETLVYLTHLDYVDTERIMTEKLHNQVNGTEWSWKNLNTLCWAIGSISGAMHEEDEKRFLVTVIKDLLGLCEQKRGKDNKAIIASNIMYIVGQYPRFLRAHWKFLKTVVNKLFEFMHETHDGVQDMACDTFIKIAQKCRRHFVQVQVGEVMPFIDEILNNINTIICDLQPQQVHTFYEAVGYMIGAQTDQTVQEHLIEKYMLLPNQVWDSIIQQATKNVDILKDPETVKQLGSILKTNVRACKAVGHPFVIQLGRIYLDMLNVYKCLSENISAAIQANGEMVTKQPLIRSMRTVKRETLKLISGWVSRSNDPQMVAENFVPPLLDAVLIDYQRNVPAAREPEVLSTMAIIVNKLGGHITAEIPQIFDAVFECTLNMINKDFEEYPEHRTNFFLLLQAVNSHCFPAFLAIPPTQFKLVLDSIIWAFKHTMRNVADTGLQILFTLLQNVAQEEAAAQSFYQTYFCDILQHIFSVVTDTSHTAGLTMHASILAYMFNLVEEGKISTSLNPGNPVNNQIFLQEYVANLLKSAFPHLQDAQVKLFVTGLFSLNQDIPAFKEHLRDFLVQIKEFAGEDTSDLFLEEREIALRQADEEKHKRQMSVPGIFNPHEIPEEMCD

[9] = HeLa, protein CACYBP (ISOFORM 1 OF CALCYCLIN-BINDING PROTEIN)

T1 sequence (P60842 whole entry): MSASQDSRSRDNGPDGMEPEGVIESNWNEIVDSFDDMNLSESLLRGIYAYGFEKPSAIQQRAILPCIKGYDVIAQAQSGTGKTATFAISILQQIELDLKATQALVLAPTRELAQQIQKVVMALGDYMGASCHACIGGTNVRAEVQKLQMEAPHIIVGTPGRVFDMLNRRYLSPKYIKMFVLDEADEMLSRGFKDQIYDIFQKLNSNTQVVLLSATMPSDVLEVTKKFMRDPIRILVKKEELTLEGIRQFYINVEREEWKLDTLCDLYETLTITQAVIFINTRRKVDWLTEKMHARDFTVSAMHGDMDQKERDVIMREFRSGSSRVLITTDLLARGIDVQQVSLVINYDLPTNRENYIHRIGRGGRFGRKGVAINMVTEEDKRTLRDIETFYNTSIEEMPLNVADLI

SMILES	fold changes relative to vehicle control ([1]; HeLa, protein EIF4A1)	fold changes relative to vehicle control ([2]; HeLa, captured protein SIRT3)	fold changes relative to vehicle control ([3]; HeLa, captured protein GCDH)	fold changes relative to vehicle control ([4]; HeLa, protein SOD2)	fold changes relative to vehicle control ([5]; protein QTRT1, HeLa)	fold changes relative to vehicle control [6, 9]	fold changes relative to vehicle control ([7]; HeLa, captured protein HINT1)	fold changes relative to vehicle control ([8]; HeLa, captured protein XPO1)	fold changes relative to vehicle control ([1]; protein EIF4A1, HeLa)	fold changes relative to vehicle control ([2]; protein SIRT3, HeLa)	fold changes relative to vehicle control ([3]; captured protein GCDH, HeLa)	fold changes relative to vehicle control ([4]; protein SOD2, HeLa)	fold changes relative to vehicle control ([6]; protein CACYBP, HeLa)	fold changes relative to vehicle control ([7]; HeLa, protein HINT1)	fold changes relative to vehicle control ([8]; HeLa, protein XPO1)	other results
Nc1nc2c(c(=O)[nH]1)N(C=O)C(CNc1ccc(C(=O)N[C@@H](CCC(=O)O)C(=O)O)cc1)CN2 (some centres unmarked) [LEU, leucovorin]	0.99	1	0.96	1.14	0.96	0.85	1.12	0.92								
NCCCNc1ccc(C(=O)NC(CCC(=O)O)C(=O)O)cc1 (centres unmarked) [compound 7]	0.89	0.92	0.98	1.35	0.98	1.16	1.33	0.94								
CCCCCCOc1cccc(Cc2cnc(N)nc2N)c1 [compound 2]					1.05				1.75	1	0.95	2.29	1.37	0.99	1.09	
CCCCCCOc1ccc(Cc2cnc(N)nc2N)cc1 [compound 1]					0.51				1.12	1	0.91	1.91	1.12	1.03	0.99	
Nc1nc2cccc(-c3ccccc3)c2n1Cc1ccc(Cl)c(Cl)c1 [compound 3]					1.03				0.8	1.16	0.98	1.43	0.93	1.17	1.03	
NCCOCCOCC(=O)Nc1nc2ncc(CNc3ccc(C(=O)NC(CCC(=O)O)C(=O)O)cc3)nc2c(=O)[nH]1 (centres unmarked) [compound 6]	1.27	0.77	0.62	1.65	0.28	1.16	1.33	0.93								
Nc1nc2[nH]cc(CCc3ccc(C(=O)N[C@@H](CCC(=O)O)C(=O)O)cc3)c2c(=O)[nH]1 [PTX, pemetrexed]																fold changes relative to vehicle control [1]: 1.07; fold changes relative to vehicle control [2]: 0.95; fold changes relative to vehicle control [3]: 0.75; fold changes relative to vehicle control [4]: 1.29; fold changes relative to vehicle control [5]: 0.84; fold changes relative to vehicle control [6]: 1; fold changes relative to vehicle control [7]: 0.77; fold changes relative to vehicle control [8]: 0.86
